According to patent US11591323B2, “Muscarinic agonists as non-steroidal and non-opioid analgesics and methods of use thereof” (Barry University, priority 2019, dated 2023):

Columns and labels:
M4 muscarinic receptor = target: T1, M4 muscarinic receptor (Homo sapiens, UniProt P08173); assay: stimulation of cAMP, M4 CHO cells (M4Gs); format: cell-based; set-up: host or cells: CHO cells, stably transfected; conditions: for RAi / E′MAX / τ / Δlog(τ/KA): M4Gs (↑cAMP); for RAi: Table 8, relative to carbachol; for E′MAX / τ: Table 8; for Δlog(τ/KA): Table 8, to carbachol
T1 sequence (P08173 1-479): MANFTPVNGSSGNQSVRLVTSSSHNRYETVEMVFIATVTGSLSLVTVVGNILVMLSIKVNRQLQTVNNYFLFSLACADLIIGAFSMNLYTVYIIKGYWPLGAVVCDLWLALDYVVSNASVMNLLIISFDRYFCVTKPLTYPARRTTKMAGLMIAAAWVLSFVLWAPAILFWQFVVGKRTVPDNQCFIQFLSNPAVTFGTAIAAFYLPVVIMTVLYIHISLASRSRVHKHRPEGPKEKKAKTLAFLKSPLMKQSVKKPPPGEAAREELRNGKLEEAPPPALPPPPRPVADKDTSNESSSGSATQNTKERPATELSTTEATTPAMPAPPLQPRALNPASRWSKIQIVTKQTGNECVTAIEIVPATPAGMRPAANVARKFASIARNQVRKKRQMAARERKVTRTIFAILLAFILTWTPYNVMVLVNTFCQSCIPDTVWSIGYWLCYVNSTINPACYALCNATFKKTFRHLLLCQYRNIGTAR
Method: (§1) To determine level of cAMP, cells in suspension were pre-incubated for 1 h with 0.4 μM [^3H]adenine, washed, and incubated for 10 min in the presence of isobutylmethylxanthine and 10 μM forskolin. […] Incubation was ended by addition of 0.2 ml of 2.5 M HCl to the samples. Samples were applied to alumina columns (1.5 g of alumina per column), washed with 2 ml ammonium acetate (pH=7.0) and eluted from columns with 4 ml ammonium acetate and measured by liquid scintillation spectrometry. […] The incubation was stopped by addition of 0.5 ml of chloroform methanol HCl mixture (2:1:0.1). After separation of water and organic phases, 0.6 ml of water phase was applied to Dowex columns (1.5 g of Dowex per column), washed by 20 ml of 60 mM ammonium formate/5 mM sodium borate buffer and eluted from columns with 4 ml of 1M ammonium formate/0.1 formic acid buffer and measured by liquid scintillation spectrometry.
(§2) Measurements of the production of cAMP and inositol phosphates: Levels of second messengers cAMP and inositol phosphates were determined in radiochemical chromatography assays as described previously. To determine level of cAMP, cells in suspension were pre-incubated for 1 h with 0.4 μM [^3H]adenine, washed, and incubated for 10 min in the presence of isobutylmethylxanthine and 10 μM forskolin. […] Incubation was ended by addition of 0.2 ml of 2.5 M HCl to the samples. Samples were applied to alumina columns (1.5 g of alumina per column), washed with 2 ml ammonium acetate (pH=7.0) and eluted from columns with 4 ml ammonium acetate and measured by liquid scintillation spectrometry. […] For this purpose, new CHO cell lines stably expressing promiscuous G15 G-protein and M2 or M4 receptor were generated by transfection with pCMV/hygro vector and hygromycin selection. To determine the rate of formation of inositol phosphates IPX, suspended cells were pre-incubated with 0.1 μM [^3H]myo-inositol for 60 min, washed, and incubated with 10 mM LiCl for 15 min. […] The incubation was stopped by addition of 0.5 ml of chloroform methanol HCl mixture (2:1:0.1). After separation of water and organic phases, 0.6 ml of water phase was applied to Dowex columns (1.5 g of Dowex per column), washed by 20 ml of 60 mM ammonium formate/5 mM sodium borate buffer and eluted from columns with 4 ml of 1M ammonium formate/0.1 formic acid buffer and measured by liquid scintillation spectrometry.
(§3) For bi-phasic response, curves were inhibitory and stimulatory phase were fitted separately. Operational Model of Functional Agonism
(§4) [formula] where y is functional response at concentration of tested compound x, EMAX is maximal response of the system, KA is equilibrium dissociation constant and nH is slope factor. Eq. 5 was fitted to data from functional experiments. Eq. 5 was fitted to data by the two-step procedure described earlier. […] In the second step, Eq. 5 with EMAX fixed to the value determined in the first step was fitted to individual experimental data sets. Relative Intrinsic Activity

M5 muscarinic receptor = target: T2, M5 muscarinic receptor (Homo sapiens, UniProt P08912); assay: accumulation of IPX, M5 CHO cells transfected with G15 (M5Gq+G15); format: cell-based; set-up: expressed in transfected cells; host or cells: CHO cells; conditions: for EC50 / E′MAX / τ: Table 8; for Kd: Table 8, read-out: pKA (converted); for RAi: Table 8, relative to carbachol; for Δlog(τ/KA): Table 8, to carbachol
T2 sequence (P08912 1-532): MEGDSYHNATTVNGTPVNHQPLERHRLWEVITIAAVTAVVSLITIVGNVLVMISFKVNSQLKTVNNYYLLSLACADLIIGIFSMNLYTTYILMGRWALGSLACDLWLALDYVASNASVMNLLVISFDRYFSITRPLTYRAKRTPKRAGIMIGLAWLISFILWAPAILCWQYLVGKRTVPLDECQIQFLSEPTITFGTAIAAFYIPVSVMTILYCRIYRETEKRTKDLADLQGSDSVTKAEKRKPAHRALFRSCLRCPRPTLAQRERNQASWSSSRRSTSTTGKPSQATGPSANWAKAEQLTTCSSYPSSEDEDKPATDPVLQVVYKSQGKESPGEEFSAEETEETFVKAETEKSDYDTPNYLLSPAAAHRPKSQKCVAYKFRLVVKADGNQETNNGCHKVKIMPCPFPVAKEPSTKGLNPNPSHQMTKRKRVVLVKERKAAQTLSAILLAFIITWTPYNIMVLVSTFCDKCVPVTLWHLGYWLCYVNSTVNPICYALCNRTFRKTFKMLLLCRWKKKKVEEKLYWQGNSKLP
Method: as §1, §2, §3, §4

C[N+]1(Cc2cccs2)CC=CCC1.[I-] (stereo not drawn) [Compound 7A, 1-methyl-1-[(thiophen-2-yl)methyl]-1,2,3,6-tetrahydropyridin-1-ium iodide]
RAi (M4 muscarinic receptor): 0 | EC50 (M5 muscarinic receptor): 7.94 µM | E′MAX (M5 muscarinic receptor): 1.28 ± 0.05 fold over basal | τ (M5 muscarinic receptor): 0.014 ± 0.003 | Kd (M5 muscarinic receptor): 2 µM | RAi (M5 muscarinic receptor): 0.0007 ± 0.0002 | Δlog(τ/KA) (M5 muscarinic receptor): 3.17 ± 0.88

O=C1CCCN1CC#CCN1CCCC1 [oxotremorine, reference compound]
EC50 (M4 muscarinic receptor): 2.75 µM | Kd (M4 muscarinic receptor): 6.31 µM | E′MAX (M4 muscarinic receptor): 2.6 ± 0.2 fold increase | τ (M4 muscarinic receptor): 1.3 ± 0.1 | RAi (M4 muscarinic receptor): 3.58 ± 0.31 | Δlog(τ/KA) (M4 muscarinic receptor): −0.55 ± 0.06 | E′MAX (M5 muscarinic receptor): 16 ± 1 fold over basal | τ (M5 muscarinic receptor): 2.6 ± 0.3 | RAi (M5 muscarinic receptor): 4.12 ± 0.26 | Δlog(τ/KA) (M5 muscarinic receptor): −0.62 ± 0.07

C[N+](C)(C)CCOC(N)=O [carbachol, reference compound]
E′MAX (M4 muscarinic receptor): 2.9 ± 0.2 fold increase | τ (M4 muscarinic receptor): 1.9 ± 0.2 | Δlog(τ/KA) (M4 muscarinic receptor): 0 | E′MAX (M5 muscarinic receptor): 17 ± 2 fold over basal | τ (M5 muscarinic receptor): 4.0 ± 0.4 | Δlog(τ/KA) (M5 muscarinic receptor): 0

C1=CCN(Cc2cccs2)CC1.Cl [Compound 6A, 1-[(thiophen-2-yl)methyl]-1,2,3,6-tetrahydropyridin-1-ium chloride]
RAi (M4 muscarinic receptor): 0 | EC50 (M5 muscarinic receptor): 1.58 µM | E′MAX (M5 muscarinic receptor): 1.19 ± 0.04 fold over basal | τ (M5 muscarinic receptor): 0.009 ± 0.003 | Kd (M5 muscarinic receptor): 1.58 µM | RAi (M5 muscarinic receptor): 0.0025 ± 0.0008 | Δlog(τ/KA) (M5 muscarinic receptor): 2.60 ± 0.82
